Drawing on US20220313708A1, “COMBINATION PRODUCT CONTAINING LIMONOID COMPOUND AND SGLT-2 INHIBITOR” (ZHEJIANG YANGSHENGTANG INSTITUTE OF NATURAL MEDICATION CO., …, priority 2019, published 2022), this text covers Blood glucose value for one molecule.

The subject of this assay is mouse type II diabetes model with pancreatic islet damage and obesity. Nature of the assay: Blood glucose in mouse type II diabetes model with pancreatic islet damage and obesity (STZ + high-fat diet, Example 5, tofogliflozin). Format: in vivo. Particulars: STZ + high-fat diet ICR mice; single agent 0.5 g/kg per day by gavage, two weeks; 1 h after last administration; mean ± SD. An excerpt: In this example, a mouse model of type II diabetes with pancreatic islet damage and obesity was established by multiple modeling ICR mice with a small dose of streptozotocin (STZ), following with continuous high-fat diets (referring to literature: Zhang Jiyuan et al, Study on the effect of three plant extracts on improving glucose and lipid metabolism in type 2 diabetic mice, Food and Machinery, 2016, 32 (12): 142-147). […]
Experimental grouping: 15 male mice were randomly selected as the normal control group, and the remaining mice were subjected to a high-fat diet (high-fat diet formula: cholesterol 1%, egg yolk powder 10%, lard oil 10%, and basic feed 79%, for establishing an obesity mouse model) for consecutive 4 weeks and intraperitoneal injection of STZ at a dose of 35 mg/kg for three consecutive days. After one week, the mice were subject to 24 hours of fasting and water deprivation, their fasting blood glucose was measured, and the mice with a blood glucose level of 15 to 25 mmol/L were selected and undifferentiatedly grouped and used in the experiment, continuously subjected to the high-fat diet, 15 mice in each group, and subjected to blood sampling and detection of indicators after 2 weeks of administration. […]

As to `CCc1ccc(Cc2ccc3c(c2)[C@]2(OC3)O[C@H](CO)[C@@H](O)[C@H](O)[C@H]2O)cc1` [Tofogliflozin, tofogliflozin], the Blood glucose value turned out to be 10.1 ± 2.7 mmol/L.
